Marks after values point to notes of the source that are not given here.
Test system: CARCINOME DU POUMON DE LEWIS
Experiment: Antitumour activity on Lewis lung carcinoma implanted i.m. in mice
Type: in vivo, souris C57Bl/6
Details: 60 mg/kg i.p. x j 1,5,9
Text: Les tests d'activité antitumorale ont été conduits au sein du Screening and Pharmacology Group de l'E.O.R.T.C., implanté à l'Institut Mario Negri de Milan.
Ces essais ont été conduits soit en mono-injection à différentes doses au jour J+1 suivant la greffe de la tumeur, soit en poly-injections chroniques Q1D, soit en protocoles Q4D.

O=P1(N(CCCl)CCCl)NCCCO1 (stereo not shown) [CPA, Cyclophosphamide, reference compound]
Volume de la tumeur (d^2.D/2)cm^3 ± S.E. (jour 17): 0,57±0,16* cm^3 | Volume de la tumeur (d^2.D/2)cm^3 ± S.E. (jour 20): 1,30±0,17* cm^3 | Volume de la tumeur (d^2.D/2)cm^3 ± S.E. (jour 24): 3,03±0,25* cm^3 | Poids moyen de la tumeur (g ± S.E.) (sacrifice jour 25): 4,14 ± 0,27 g
